In this assay the test system is soluble epoxide hydrolase (sEH). Kind of assay: Fluorescent Assay for Mouse and Human Soluble Epoxide Hydrolase (CMNPC substrate). The class given is biochemical. The source says: Fluorescent Assay for Mouse and Human Soluble Epoxide Hydrolase Recombinant mouse sEH (MsEH) and human sEH (HsEH) were produced in a baculovirus expression system as previously reported. Grant et al., J. Biol. Chem., 268:17628-17633 (1993); Beetham et al., Arch. Biochem. Biophys., 305:197-201 (1993). The expressed proteins were purified from cell lysate by affinity chromatography. Wixtrom et al., Anal. Biochem., 169:71-80 (1988). Protein concentration was quantified using the Pierce BCA assay using bovine serum albumin as the calibrating standard. The preparations were at least 97% pure as judged by SDS-PAGE and scanning densitometry. They contained no detectable esterase or glutathione transferase activity which can interfere with the assay. The assay was also evaluated with similar results in crude cell lysates or homogenate of tissues. The IC50s for each inhibitor were according to the following procedure: [drawing 218] […] Jones P. D. et. al.; Analytical Biochemistry 2005; 343: pp. 66-75) Bis/Tris HCl 25 mM pH 7.0 containing 0.1 mg/mL of BSA (buffer […] at 0.25 mM in DMSO. Mother solution of enzyme in buffer A (Mouse sEH at 6 μg/mL and Human sEH at 5 μg/mL). Inhibitor dissolved in DMSO at the appropriate concentration. In a black 96 well plate, fill all the wells with 150 μL of buffer A. Add 2 μL of DMSO in well A2 and A3, and then add 2 μL of inhibitor solution in A1 and A4 through A12. Add 150 μL of buffer A in row A, then mix several time and transfer 150 μL to row B. Repeat this operation up to row H. The 150 μL removed from row H is discarded. Add 20 μL of buffer A in column 1 and 2, then add 20 μL of enzyme solution to column 3 to 12. Incubate the plate for 5 minutes in the plate reader at 30° C. During incubation prepare the working solution of substrate by mixing 3.68 mL of buffer A (4×0.920 mL) with 266 μL (2×133 μL) of substrate solution). At t=0, add 30 μL of working substrate solution with multi-channel pipette labeled “Briggs 303” and start the reading ([S]final: 5 μM). Read with ex: 330 nm (20 nm) and em: 465 nm (20 nm) every 30 second for 10 minutes. The velocities are used to analyze and calculate the IC50s. Tables 4-6 show the activity of compounds when tested with the assay at 50, 500, 5000, 50000, and 500000 nM.

Consider 37 compounds from patent US20080200467A1, “SOLUBLE EPOXIDE HYDROLASE INHIBITORS” (Arete Therapeutics, Inc., priority 2006, published 2008).

Turning to `O=C(Nc1cccc(OCCCN2CCOCC2)c1)C(=O)c1ccc(C(F)(F)F)cc1` [Compound 1, N-[3-(3-Morpholin-4-yl-propoxy)-phenyl]-2-oxo-2-(4-trifluoromethyl-phenyl)-acetamide], under “Concentration 500 nM”, the “% Inhibition” value came out at 65%.
For the compound `O=C(Nc1ccc(C(=O)NCCN2CCOCC2)cc1)C(=O)c1ccc(C(F)(F)F)cc1` [Compound 2, N-(2-Morpholin-4-yl-ethyl)-4-[2-oxo-2-(4-trifluoromethyl-phenyl)-acetylamino]-benzamide], the “% Inhibition” value (Concentration 50000 nM) was determined as 82%.
The same measure, in the same setting: next, `O=C(NC12CC3CC(CC(C3)C1)C2)C(=O)c1cccc(OCc2ccccc2)c1` [Compound 3, N-Adamantan-1-yl-2-(3-benzyloxy-phenyl)-2-oxo-acetamide]: 96%; `COC1CCC(NC(=O)C(=O)c2ccc(C(F)(F)F)cc2)CC1` (stereo not shown) [Compound 4, N-(4-Methoxy-cyclohexyl)-2-oxo-2-(4-trifluoromethyl-phenyl)-acetamide]: 87%.
In the case of `O=C(Nc1cccc(OCc2ccccc2)c1)C(=O)c1ccc(C(F)(F)F)cc1` [Compound 5, N-(3-Benzyloxy-phenyl)-2-oxo-2-(4-trifluoromethyl-phenyl)-acetamide], the “% Inhibition” value (Concentration 5000 nM) came to 71%.
On the same count and under the same terms, under `O=C(Cc1ccc(OCc2ccccc2)cc1)C(=O)NCC12CC3CC(CC(C3)C1)C2` [Compound 6, N-Adamantan-1-ylmethyl-3-(4-benzyloxy-phenyl)-2-oxo-propionamide] stands 71%.
The same measure, in the same setting: next, `O=C(Cc1ccc(OCc2ccccc2)cc1)C(=O)NC12CC3CC(CC(C3)C1)C2` [Compound 7, N-Adamantan-1-yl-3-(4-benzyloxy-phenyl)-2-oxo-propionamide]: 75%; `O=C(Nc1ccc(-n2ccnc2)cc1)C(=O)c1ccc(C(F)(F)F)cc1` [Compound 8, N-(4-Imidazol-1-yl-phenyl)-2-oxo-2-(4-trifluoromethyl-phenyl)-acetamide]: 85%.
Take `Cc1ccc(S(=O)(=O)N2CCC(NC(=O)C(=O)c3ccc(C(F)(F)F)cc3)CC2)cc1` [Compound 9, 2-Oxo-N-[1-(toluene-4-sulfonyl)-piperidin-4-yl]-2-(4-trifluoromethyl-phenyl)-acetamide]: under “Concentration 50000 nM”, the “% Inhibition” value was 72%.
In the case of `Cc1ccc(S(=O)(=O)N2CCC(NC(=O)C(=O)C3CCCCC3)CC2)cc1` [Compound 10, 2-Cyclohexyl-2-oxo-N-[1-(toluene-4-sulfonyl)-piperidin-4-yl]-acetamide], for the setting “Concentration 5000 nM”, the “% Inhibition” value is recorded as 70%.
For the compound `O=C(Nc1ccc(-n2ccnc2)cc1)C(=O)C1CCCCC1` [Compound 11, 2-Cyclohexyl-N-(4-imidazol-1-yl-phenyl)-2-oxo-acetamide], the “% Inhibition” value (Concentration 50000 nM) came out at 80%.
Same read-out and setting: next, `O=C(Nc1cccc(OCc2ccccc2)c1)C(=O)C1CCCCC1` [Compound 12, N-(3-Benzyloxy-phenyl)-2-cyclohexyl-2-oxo-acetamide]: 99%.
As to `CCCC(=O)N1CCC(NC(=O)C(=O)c2ccc(C(F)(F)F)cc2)CC1` [Compound 14, N-(1-Butyryl-piperidin-4-yl)-2-oxo-2-(4-trifluoromethyl-phenyl)-acetamide], the “% Inhibition” value (Concentration 50000 nM) is 77%.
For the compound `O=C(CC12CC3CC(CC(C3)C1)C2)C(=O)Nc1cccc(OCc2ccccc2)c1` [Compound 15, 3-Adamantan-1-yl-N-(3-benzyloxy-phenyl)-2-oxo-propionamide], the “% Inhibition” value (Concentration 5000 nM) amounted to 86%.
In the case of `CCCC(=O)N1CCC(NC(=O)C(=O)C2CCCCC2)CC1` [Compound 16, N-(1-Butyryl-piperidin-4-yl)-2-cyclohexyl-2-oxo-acetamide], the “% Inhibition” value (Concentration 50000 nM) came out at 62%.
Take `O=C(CC12CC3CC(CC(C3)C1)C2)C(=O)Nc1ccc(OCc2ccccc2)cc1` [Compound 17, 3-Adamantan-1-yl-N-(4-benzyloxy-phenyl)-2-oxo-propionamide]: under “Concentration 5000 nM”, the “% Inhibition” value amounted to 64%.
Same read-out and setting: under `Cc1ccc(S(=O)(=O)N2CCC(NC(=O)C(=O)C34CC5CC(CC(C5)C3)C4)CC2)cc1` [Compound 18, 2-Adamantan-1-yl-2-oxo-N-[1-(toluene-4-sulfonyl)-piperidin-4-yl]-acetamide] stands 93%; under `Cc1ccc(S(=O)(=O)N2CCC(NC(=O)C(=O)CC34CC5CC(CC(C5)C3)C4)CC2)cc1` [Compound 19, 3-Adamantan-1-yl-2-oxo-N-[1-(toluene-4-sulfonyl)-piperidin-4-yl]-propionamide], 99%; under `O=C(Nc1ccc(OCc2ccccc2)cc1)C(=O)C12CC3CC(CC(C3)C1)C2` [Compound 20], 93%.
Same read-out and setting: under `O=C(Nc1ccc(-n2ccnc2)cc1)C(=O)C12CC3CC(CC(C3)C1)C2` [Compound 21] stands 93%; under `COc1ccc(C(=O)C(=O)NCC23CC4CC(CC(C4)C2)C3)cc1` [Compound 22], 78%.
On to `O=C(CCc1ccc(C(F)(F)F)cc1)C(=O)Nc1ccc(OCc2ccccc2)cc1` [Compound 23], for which the “% Inhibition” value (Concentration 50000 nM) turned out to be 93%.
In the case of `O=C(CC12CC3CC(CC(C3)C1)C2)C(=O)NCCc1ccc(OCc2ccccc2)cc1` [Compound 24], the “% Inhibition” value (Concentration 5000 nM) is 87%.
The same measure, in the same setting: under `O=C(Nc1cccc(OCCCN2CCOCC2)c1)C(O)c1ccc(C(F)(F)F)cc1` (stereo not shown) [Compound 101, 2-Hydroxy-N-[3-(3-morpholin-4-yl-propoxy)-phenyl]-2-(4-trifluoromethyl-phenyl)-acetamide] stands 95%.
For `O=C(NCCN1CCOCC1)c1ccc(NC(=O)C(O)c2ccc(C(F)(F)F)cc2)cc1` (stereo not shown) [Compound 102, 4-[2-Hydroxy-2-(4-trifluoromethyl-phenyl)-acetylamino]-N-(2-morpholin-4-yl-ethyl)-benzamide], the “% Inhibition” value (Concentration 50000 nM) amounted to 63%.
Take `O=C(NC12CC3CC(CC(C3)C1)C2)C(O)c1cccc(OCc2ccccc2)c1` (stereo not shown) [Compound 103, N-Adamantan-1-yl-2-(3-benzyloxy-phenyl)-2-hydroxy-acetamide]: for the setting “Concentration 5000 nM”, the “% Inhibition” value was 87%.
Consider `COC1CCC(NC(=O)C(O)c2ccc(C(F)(F)F)cc2)CC1` (stereo not shown) [Compound 104, 2-Hydroxy-N-(4-methoxy-cyclohexyl)-2-(4-trifluoromethyl-phenyl)-acetamide], for which, where the note is “Concentration 50000 nM”, the “% Inhibition” value is given as 79%.
`O=C(Nc1cccc(OCc2ccccc2)c1)C(O)c1ccc(C(F)(F)F)cc1` (stereo not shown) [Compound 105, N-(3-Benzyloxy-phenyl)-2-hydroxy-2-(4-trifluoromethyl-phenyl)-acetamide]: the “% Inhibition” value (Concentration 5000 nM) was determined as 99%.
For the compound `O=C(NCC12CC3CC(CC(C3)C1)C2)C(O)Cc1ccc(OCc2ccccc2)cc1` (stereo not shown) [Compound 106, N-Adamantan-1-ylmethyl-3-(4-benzyloxy-phenyl)-2-hydroxy-propionamide], the “% Inhibition” value (Concentration 500 nM) came to 82%.
In the case of `O=C(NC12CC3CC(CC(C3)C1)C2)C(O)Cc1ccc(OCc2ccccc2)cc1` (stereo not shown) [Compound 107, N-Adamantan-1-yl-3-(4-benzyloxy-phenyl)-2-hydroxy-propionamide], the “% Inhibition” value (Concentration 5000 nM) stood at 91%.
In the case of `Cc1ccc(S(=O)(=O)N2CCC(NC(=O)C(O)c3ccc(C(F)(F)F)cc3)CC2)cc1` (stereo not shown) [Compound 108, 2-Hydroxy-N-[1-(toluene-4-sulfonyl)-piperidin-4-yl]-2-(4-trifluoromethyl-phenyl)-acetamide], for the setting “Concentration 50000 nM”, the “% Inhibition” value is 80%.
For the compound `O=C(Nc1ccc(-n2ccnc2)cc1)C(O)c1ccc(C(F)(F)F)cc1` (stereo not shown) [Compound 109, 2-Hydroxy-N-(4-imidazol-1-yl-phenyl)-2-(4-trifluoromethyl-phenyl)-acetamide], the “% Inhibition” value (Concentration 500000 nM) is 80%.
Regarding `O=C(Nc1ccc(-n2ccnc2)cc1)C(O)C1CCCCC1` (stereo not shown) [Compound 112, 2-Cyclohexyl-2-hydroxy-N-(4-imidazol-1-yl-phenyl)-acetamide], the “% Inhibition” value (Concentration 50000 nM) was found to be 80%.
On to `O=C(Nc1cccc(OCc2ccccc2)c1)C(O)C1CCCCC1` (stereo not shown) [Compound 113, N-(3-Benzyloxy-phenyl)-2-cyclohexyl-2-hydroxy-acetamide], for which the “% Inhibition” value (Concentration 5000 nM) turned out to be 66%.
`CCCC(=O)N1CCC(NC(=O)C(O)c2ccc(C(F)(F)F)cc2)CC1` (stereo not shown) [Compound 114, N-(1-Butyryl-piperidin-4-yl)-2-hydroxy-2-(4-trifluoromethyl-phenyl)-acetamide]: the “% Inhibition” value (Concentration 50000 nM) stood at 74%.
As to `O=C(Nc1cccc(OCc2ccccc2)c1)C(O)CC12CC3CC(CC(C3)C1)C2` (stereo not shown) [Compound 115, 3-Adamantan-1-yl-N-(3-benzyloxy-phenyl)-2-hydroxy-propionamide], for the setting “Concentration 500 nM”, the “% Inhibition” value stood at 89%.
For the compound `CCCC(=O)N1CCC(NC(=O)C(O)C2CCCCC2)CC1` (stereo not shown) [Compound 116, N-(1-Butyryl-piperidin-4-yl)-2-cyclohexyl-2-hydroxy-acetamide], for the setting “Concentration 5000 nM”, the “% Inhibition” value turned out to be 81%.
